Read-outs that look alike come from different tables or passages of the source.
Assays:
[1] = test system: control and X-ALD fibroblasts; test: Immunoblot of LC3-II and p62 in fibroblasts treated or not with VLCFA; type: cell-based, human; settings: excess of VLCFA
Procedure: (§1) Skin biopsies to prepare fibroblasts were collected according to the institutional guidelines for sampling, including informed consent from the persons involved or their representatives. Primary human fibroblasts were cultured in DMEM (containing 10% fetal bovine serum, 100 U/ml penicillin and 100 μg streptomycin) at 37° C. in humidified 5% CO2/95% air. Unless otherwise stated, experiments were carried out with cells at 80% confluence. For starvation conditions (high proteolysis medium, H), cells were switched, after washing, from full growth medium (see above, low proteolysis medium, L) to Krebs-Henseleit medium (118.4 mM NaCl, 4.75 mM KCl, 1.19 mM KH2PO4, 2.54 mM MgSO4, 2.44 mM CaCl2.2H2O, 28.6 mM NaHCO3, 10 mM glucose) containing 10 mM Hepes, pH 7.4 (high proteolysis medium, H) and incubated for 4 h or less at 37° C.
(§2) Tissues were removed from euthanized mice and flash-frozen on liquid nitrogen. Frozen tissues and human fibroblasts samples were homogenized in RIPA buffer (Cell Signaling Technology) using a motor-driven grinder (Sigma-Aldrich), and then sonicated for 2 min at 4° C. in an Ultrasonic processor UP50H (Hielscher-Ultrasound Technology). Samples were subjected to polyacrylamide (10% acrylamide) gel electrophoresis for 60 min at […]. Resolved proteins were transferred onto nitrocellulose membranes and proteins were detected with ECL Western blotting analysis system followed by exposure to CL-XPosure Film (Thermo Scientific). Autoradiographs were scanned and quantified using a GS800 Densitometer (Bio-Rad).
Then, the LC3-II and p62 levels in cell extracts from control and X-ALD fibroblasts treated or not with VLCFA were determined by immunoblot analysis.

[2] = test system: control and X-ALD patient fibroblasts; test: Pulse-chase degradation of long-lived proteins in fibroblasts treated with VLCFA; type: cell-based, human; settings: C26:0 50 μM 24 h, high proteolysis medium; for inhibition at 50 µM: Homo sapiens, Fibroblast, control fibroblasts
Procedure: as §1
For pulse-chase experiments, human control and X-ALD patient fibroblasts were incubated for 48 h in fresh full medium with 1 μCi/ml [3H]valine (Hartmann Analytic Gmbh), followed by a 24 h chase in fresh full medium containing 10 mM L-valine to degrade short-lived proteins. Then, all cultures were incubated for the indicated times in Krebs-Henseleit medium with 10 mM Hepes, pH 7.4, containing 10 mM valine and the indicated additions. Protein degradation, which was analysed 1 h later to ensure maximal effects of the various additions and for only 3 h to avoid possible secondary effects, was calculated at two intervals of 1.5 h by measuring the net release of trichloroacetic acid-soluble radioactivity from the labelled cells into the culture medium and expressed as percentage of protein degraded. The contribution of lysosomal degradation to total protein degradation was calculated using 20 mM NH4Cl (Sigma-Aldrich) plus 100 μM leupeptin (Peptide Institute), as previously described (Fuertes G, et al, 2003, Biochem J 375, 75-86).
In X-ALD, VLCFA accumulate. The effect of the addition of an excess of hexacosanoic acid to fibroblasts isolated from controls and X-ALD patients was tested. First, the degradation of intracellular proteins was analyzed to determine if it was any alteration in control and X-ALD fibroblasts upon addition of an excess of VLCFA, by analyzing in pulse-chase experiments the degradation of long-lived proteins under starvation. Total protein degradation and also, separately, lysosomal protein degradation were estimated by procedures previously described (Fuertes G, et al, 2003, Biochem J 375, 75-86).

[3] = cited from earlier work
[4] = test system: Abcd1−/−/Abcd2−/− mice; test: Bar cross test; type: in vivo, mouse; settings: Abcd1−/−/Abcd2−/− mice at 20 months of age
[5] = test system: Abcd1 null mice; test: Dose tests of temsirolimus in Abcd1 null mice (body response, weight); type: in vivo, mouse
Text: (§3) All methods employed in this study were in accordance with the Guide for the Care and Use of Laboratory Animals published by the US National Institutes of Health (NIH publication No. 85-23, revised 1996) and the ethical committees of IDIBELL and the Generalitat de Catalunya. The generation and genotyping of Abcd1 null mice have been previously described. Mice used for experiments were on a pure C57BL/6J background. Abcd1 null and wild type mice were separated into control and treated groups. Temsirolimus (LC laboratories) was administered by intraperitoneal injections three times a week at a dose of 20 mg/kg for 3 months with alternate 3-weeks rest periods between each month of treatment. Control mice were given a placebo injection containing buffer only with the same frequency. Treadmill test was carried out exactly as previously described (López-Erauskin J, et al, 2011, Ann Neurol 70, 84-92). The latency to falling off the belt (time of shocks in seconds) and the number of received shocks were measured. Bar cross test was performed as previously described (López-Erauskin J, et al, 2011, Ann Neurol 70, 84-92). Placebo and drug treated mice within each litter were tested on the treadmill simultaneously and at the time of testing were not identified as to their treatment status.
10 month-old Abcd1 null mice were treated with temsirolimus, or vehicle (control), administered by intraperitoneal injection as described previously. Doses tests in order to check mice's body response was firstly performed. […] Thus, to prevent side effects other treatment conditions: intraperitoneal injections of temsirolimus for 3 months with alternate 3-weeks rest periods between each month of treatment, were tested.

[6] = test system: Abcd1−/−/Abcd2−/− mice; test: Treadmill test; type: in vivo, mouse; settings: Abcd1−/−/Abcd2−/− mice at 20 months of age
[7] = test system: Abcd1−/− mouse spinal cord; test: Oxidized proteins, ATP levels, proteasome activity and immunoproteasome subunits in spinal cord of temsirolimus-treated Abcd1−/− mice; type: in vivo; settings: temsirolimus 20 mg/kg i.p.
Text: as §3
Total RNA was isolated from homogenized spinal cord using the RNeasy mini kit (Qiagen), according to the manufacturer's instructions. RNA samples with RNA Integrity Number (RIN) above 8 and 28S/18S ratio higher than 1 were used for the experiments. Then, first strand cDNA was synthesized for each RNA sample using Superscript II reverse transcriptase (Invitrogen) and random primers. The expression of the candidate proteasome genes was analysed by RQ-PCR using TaqMan® Gene Expression Assays (Applied Biosystems).
Relative quantitation was carried out using the ‘Delta-Delta Ct’ (ΔΔCt) method with tubby RNA as endogenous control. Transcript quantification was performed in duplicate for each sample.
as §2
ATP levels were measured as previously described (Galino J, et al 2011, Antioxid Redox Signal 15, 2095-2107). For proteasome activity assays, tissues were homogenized in an ice-cold buffer (50 mM Tris-HCl pH 7.5, 1 mM dithiothreitol, 0.25 M sucrose, 5 mM MgCl2, 0.5 mM EDTA with 2 mM ATP), using a teflon-on-glass homogenizer, and centrifuged at 12,000×g for 10 min. Chymotrypsin-like activity of proteasomes was determined as described (Launay N, et el, 2013 Brain 136, 891-904), using Suc-LLVY-AMC as substrate. […] The free AMC fluorescence was quantified with a fluorescence multiplate FLUOstar OPTIMA FL reader (BMG) with excitation and emission wavelengths at 380 and 460 nm, respectively. […] All reactions were carried out in duplicate and readings were calibrated using standard solutions of the fluorophores.

[8] = test system: Abcd1−/− mouse spinal cord; test: Western blot of autophagy markers LC3-II and p62 in spinal cord of treated Abcd1−/− mice; type: in vivo; settings: temsirolimus 20 mg/kg i.p. three times a week, 3 months with rest periods
Text: as §3, with “Bar cross test was performed as previously described (López-Erauskin J, et al, 2011, Ann Neurol 70, 84-92). Placebo and drug treated mice within each litter were tested on the treadmill simultaneously and at the time of testing were not identified as to their treatment status.” left out
(§4) Tissues were removed from euthanized mice and flash-frozen on liquid nitrogen. […] Resolved proteins were transferred onto nitrocellulose membranes and proteins were detected with ECL Western blotting analysis system followed by exposure to CL-XPosure Film (Thermo Scientific). Autoradiographs were scanned and quantified using a GS800 Densitometer (Bio-Rad).

[9] = test system: mTOR; test: p70S6K phosphorylation (mTOR activity) by Western blot in spinal cord of treated Abcd1−/− mice; type: in vivo, mouse; settings: temsirolimus 20 mg/kg i.p. three times a week, 3 months with rest periods
Text: as §3, with “Bar cross test was performed as previously described (López-Erauskin J, et al, 2011, Ann Neurol 70, 84-92). Placebo and drug treated mice within each litter were tested on the treadmill simultaneously and at the time of testing were not identified as to their treatment status.” left out
as §4

[10] = test system: Abcd1−/−/Abcd2−/− mice; test: Immunohistochemistry of axonal degeneration markers in spinal cord of Abcd1−/−/Abcd2−/− mice; type: in vivo, mouse
Text: as §3
Spinal cords were harvested from 20-month-old mice (wild type, Abcd1−/−/Abcd2−/− and Abcd1−/−/Abcd2−/− treated with temsirolimus), after perfusion with 4% paraformaldehyde and prepared and incubated for immunohistochemistry as described (López-Erauskin J, et al, 2011. Ann Neurol 70, 84-92).

[11] = intraperitoneal injections for 3 months with alternate 3-weeks rest periods between each month
[12] = RT-PCR, Abcd1−/− mouse spinal cord
[13] = spinal cord, 20-month-old Abcd1−/−/Abcd2−/− mice, to control levels
[14] = spinal cord, Abcd1−/−/Abcd2−/− mice, to control levels, data not shown

CCCCCCCCCCCCCCCCCCCCCCCCCC(=O)O [VLCFA, Hexacosanoic acid]
LC3-II levels ([1]; X-ALD fibroblasts): no significant differences | p62 levels ([1]; X-ALD fibroblasts): no significant differences | LC3-II levels ([1]; control fibroblasts): marked decrease | p62 levels ([1]; control fibroblasts): increase | inhibition at 50 µM ([2]; read-out: inhibition of lysosomal degradation of long-lived proteins): ~40% | inhibition at 50 µM ([2]; read-out: inhibition of total degradation of long-lived proteins): ~15% | inhibition of lysosomal degradation of long-lived proteins ([2]; X-ALD fibroblasts): no significant inhibitions | inhibition of total degradation of long-lived proteins ([2]; X-ALD fibroblasts): no significant inhibitions

CO[C@H]1C[C@@H]2CC[C@@H](C)[C@@](O)(O2)C(=O)C(=O)N2CCCC[C@H]2C(=O)O[C@H]([C@H](C)C[C@@H]2CC[C@@H](O)[C@H](OC)C2)CC(=O)[C@H](C)/C=C(\C)[C@@H](O)[C@@H](OC)C(=O)[C@H](C)C[C@H](C)/C=C/C=C/C=C/1C [rapamycin]
water solubility [3]: poor

CO[C@H]1C[C@@H]2CC[C@@H](C)[C@@](O)(O2)C(=O)C(=O)N2CCCC[C@H]2C(=O)O[C@H]([C@H](C)C[C@@H]2CC[C@@H](OC(=O)C(C)(CO)CO)[C@H](OC)C2)CC(=O)[C@H](C)/C=C(\C)[C@@H](O)[C@@H](OC)C(=O)[C@H](C)C[C@H](C)/C=C/C=C/C=C/1C [temsirolimus, (3S,6R,7E,9R,10R,12R, 14S,15E,17E,19E,21S,23S,26R,27R,34aS)-9,10,12,13,14,21,22,23,24,25,26,27,32,33,34,34a-Hexa deca hydro-9,27-dihydroxy-3-[(1R)-2-[1S,3R,4R)-4-hydroxy-3-methoxycyclohexyl]-10,21-dimethoxy-6,8,12,14,20,26-hexa meth 3H-pyrido [2,1-][1,4]oxa azaclo hentriacontine-1,5,11,28,29(4H,6H,31H)-pentone 4′-[2,2-bis (hydroxymethyl)propionate]]
number of slips [4]: normalized | time needed to cross the bar [4]: normalized | body weight ([5]; continuous administration during 3 months, intraperitoneal, data not shown): important weight losses | body weight [5, 11]: without significant weight loss | locomotor performances [5, 11]: better | ratio between the time length of the shocks and the number of shocks [6]: normalized | chymotrypsin-like proteasome activity ([7]; Abcd1−/− mouse spinal cord lysates): normalized | ATP levels ([7]; Abcd1−/− mouse spinal cord): normalizing | levels of oxidized proteins ([7]; Abcd1−/− mouse spinal cord): reduced considerably | induction of immunoproteasome subunit β1i/LMP2 [7, 12]: prevented the induction | induction of immunoproteasome subunit β5i/LMP7 [7, 12]: prevented the induction | LC3-II levels [8]: up- | p62 levels [8]: down regulated | immunoreactivity for total p70S6K [9]: did not change | phosphorylated p70S6K [9]: decrease | motor neurons health in spinal cord ([10]; XALD mice): improve | accumulation of APP (axonal damage marker) [10, 13]: reduced | accumulation of synaptophysin (axonal damage marker) [10, 13]: reduced | DNA oxidation [10, 14]: reduced | number of reactive astrocytes [10, 14]: reduced | number of reactive microglia [10, 14]: reduced

— patent US10071063B2, “Specific mTOR inhibitors in the treatment of X-linked adrenoleukodystrophy” (FUNDACIÓN DE LA COMUNIDAD VALENCIANA CENTRO DE …, priority 2014, dated 2018)
